{
  "source": "paper PMC4641580",
  "about": "(ACS Medicinal Chemistry Letters, 2015)",
  "key": {"[1]": {"test_system": "Mycobacterium tuberculosis PtpB", "type": "biochemical", "conditions": "read-out: IC50 PtpB"}, "human PTP1B": {"target": "T1, human PTP1B (Homo sapiens, UniProt P18031)", "T1 sequence (P18031 1-435)": "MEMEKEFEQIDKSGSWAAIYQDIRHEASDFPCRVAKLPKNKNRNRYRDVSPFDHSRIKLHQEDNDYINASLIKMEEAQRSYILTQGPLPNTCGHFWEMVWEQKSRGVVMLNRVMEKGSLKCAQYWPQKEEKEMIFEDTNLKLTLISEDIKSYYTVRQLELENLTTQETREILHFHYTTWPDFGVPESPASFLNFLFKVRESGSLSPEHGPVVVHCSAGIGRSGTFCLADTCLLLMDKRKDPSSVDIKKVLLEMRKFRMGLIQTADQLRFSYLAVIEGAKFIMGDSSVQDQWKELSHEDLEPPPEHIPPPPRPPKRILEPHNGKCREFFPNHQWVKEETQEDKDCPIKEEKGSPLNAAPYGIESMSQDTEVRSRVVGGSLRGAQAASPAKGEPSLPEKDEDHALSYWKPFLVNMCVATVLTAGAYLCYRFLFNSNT", "type": "biochemical"}, "human LYP": {"target": "T2, human LYP (Homo sapiens, UniProt Q9Y2R2)", "T2 sequence (Q9Y2R2 1-807)": "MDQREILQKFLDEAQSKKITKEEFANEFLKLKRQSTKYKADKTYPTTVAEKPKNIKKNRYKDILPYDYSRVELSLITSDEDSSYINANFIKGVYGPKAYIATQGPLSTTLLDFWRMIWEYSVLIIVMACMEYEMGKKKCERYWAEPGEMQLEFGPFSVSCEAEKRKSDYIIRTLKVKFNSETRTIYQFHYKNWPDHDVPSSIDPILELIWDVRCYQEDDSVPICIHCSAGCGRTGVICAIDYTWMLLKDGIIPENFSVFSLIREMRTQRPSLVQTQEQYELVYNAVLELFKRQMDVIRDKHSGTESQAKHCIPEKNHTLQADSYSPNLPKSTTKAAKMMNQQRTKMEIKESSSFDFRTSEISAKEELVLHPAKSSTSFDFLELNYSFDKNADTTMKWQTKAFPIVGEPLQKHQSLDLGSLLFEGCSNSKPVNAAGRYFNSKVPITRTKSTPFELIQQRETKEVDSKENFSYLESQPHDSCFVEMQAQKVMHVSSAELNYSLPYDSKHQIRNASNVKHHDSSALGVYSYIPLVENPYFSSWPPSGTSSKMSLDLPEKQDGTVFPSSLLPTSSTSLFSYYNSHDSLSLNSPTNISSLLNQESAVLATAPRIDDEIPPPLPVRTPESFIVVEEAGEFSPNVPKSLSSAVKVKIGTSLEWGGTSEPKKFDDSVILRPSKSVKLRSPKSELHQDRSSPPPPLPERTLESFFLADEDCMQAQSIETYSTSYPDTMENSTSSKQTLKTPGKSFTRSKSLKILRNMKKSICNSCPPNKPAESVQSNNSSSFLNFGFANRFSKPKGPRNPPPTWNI", "type": "biochemical"}, "human PTP-PEST": {"target": "T3, human PTP-PEST (Homo sapiens, UniProt Q05209)", "T3 sequence (Q05209 1-780)": "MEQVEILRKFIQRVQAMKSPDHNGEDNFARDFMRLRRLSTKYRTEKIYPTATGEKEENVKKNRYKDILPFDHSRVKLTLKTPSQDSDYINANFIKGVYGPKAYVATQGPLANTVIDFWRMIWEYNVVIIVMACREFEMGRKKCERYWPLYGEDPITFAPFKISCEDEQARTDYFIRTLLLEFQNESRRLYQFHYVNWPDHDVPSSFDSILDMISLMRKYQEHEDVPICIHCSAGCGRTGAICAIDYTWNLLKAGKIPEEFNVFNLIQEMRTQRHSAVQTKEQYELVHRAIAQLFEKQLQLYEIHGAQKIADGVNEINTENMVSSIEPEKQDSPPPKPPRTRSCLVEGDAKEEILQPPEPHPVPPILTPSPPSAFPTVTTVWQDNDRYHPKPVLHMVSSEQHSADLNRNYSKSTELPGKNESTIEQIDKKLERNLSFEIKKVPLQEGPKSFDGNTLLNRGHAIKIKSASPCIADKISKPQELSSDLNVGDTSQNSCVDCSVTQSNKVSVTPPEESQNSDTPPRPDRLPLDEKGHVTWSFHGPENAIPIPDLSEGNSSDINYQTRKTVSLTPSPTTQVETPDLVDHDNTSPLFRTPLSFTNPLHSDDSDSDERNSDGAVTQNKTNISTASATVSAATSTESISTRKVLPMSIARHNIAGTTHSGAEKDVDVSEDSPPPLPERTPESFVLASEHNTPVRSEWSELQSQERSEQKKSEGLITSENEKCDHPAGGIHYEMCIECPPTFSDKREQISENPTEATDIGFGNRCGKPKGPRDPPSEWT", "type": "biochemical"}, "YopH": {"target": "YopH (Yersinia enterocolitica, UniProt P15273)", "sequence (P15273 whole entry, looked up)": "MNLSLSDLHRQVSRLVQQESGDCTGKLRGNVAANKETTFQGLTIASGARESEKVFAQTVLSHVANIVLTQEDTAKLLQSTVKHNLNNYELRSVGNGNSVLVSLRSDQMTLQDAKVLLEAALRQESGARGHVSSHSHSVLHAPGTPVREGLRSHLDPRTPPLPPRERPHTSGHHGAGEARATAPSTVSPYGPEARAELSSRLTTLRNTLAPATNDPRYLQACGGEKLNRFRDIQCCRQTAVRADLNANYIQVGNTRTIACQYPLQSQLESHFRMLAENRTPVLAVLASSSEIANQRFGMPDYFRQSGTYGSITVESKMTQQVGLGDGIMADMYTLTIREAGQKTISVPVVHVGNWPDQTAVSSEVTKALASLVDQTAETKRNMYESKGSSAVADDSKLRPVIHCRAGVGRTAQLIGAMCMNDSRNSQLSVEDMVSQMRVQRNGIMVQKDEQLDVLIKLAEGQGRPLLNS", "type": "biochemical", "conditions": "read-out: Ki against YopH"}, "[2]": {"target": "Mycobacterium tuberculosis PtpA (Mycobacterium tuberculosis, UniProt P9WIA1)", "sequence (P9WIA1 whole entry)": "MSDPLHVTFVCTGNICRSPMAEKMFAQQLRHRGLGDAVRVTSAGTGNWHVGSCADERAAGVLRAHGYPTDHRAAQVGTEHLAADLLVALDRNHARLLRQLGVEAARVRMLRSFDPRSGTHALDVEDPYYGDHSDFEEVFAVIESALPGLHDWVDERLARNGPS"}},
  "data": [
    {"smiles": "[O]=[V]([S]c1cccc[n+]1[O-])[S]c1cccc[n+]1[O-]", "note": "[Compound 3, Bis(pyridine-2-thiol N-oxide) oxovanadium(IV)]", "values": [
      {"measurement": "IC50", "setting": "[1]", "result": "52.6 ± 1.56", "unit": "µM"},
      {"measurement": "SI (IC50PTP/IC50YopH) PTP1B", "setting": "human PTP1B", "result": 2.7},
      {"measurement": "IC50", "setting": "human PTP1B; read-out: IC50 PTP1B", "result": "0.78 ± 0.02", "unit": "µM"},
      {"measurement": "SI (IC50PTP/IC50YopH) LYP", "setting": "human LYP", "result": 97.6},
      {"measurement": "IC50", "setting": "human LYP; read-out: IC50 LYP", "result": "28.3 ± 1.71", "unit": "µM"},
      {"measurement": "SI (IC50PTP/IC50YopH) PTP–PEST", "setting": "human PTP-PEST", "result": 142.4},
      {"measurement": "IC50", "setting": "human PTP-PEST; read-out: IC50 PTP–PEST", "result": "41.3 ± 3.19", "unit": "µM"},
      {"measurement": "Ki", "setting": "YopH", "result": 0.19, "unit": "µM"},
      {"measurement": "SI (IC50PTP/IC50YopH) PtpA", "setting": "[2]", "result": 31.5},
      {"measurement": "IC50", "setting": "[2]; read-out: IC50 PtpA", "result": "9.12 ± 0.26", "unit": "µM"}
    ]}
  ]
}
